From patent US20250090501A1, “METHODS OF TREATING GUT MOTILITY DISORDERS” (THE REGENTS OF THE UNIVERSITY OF CALIFORNIA, priority 2022, published 2025)

Columns and labels:
[1] = system: stage 1 enteric ganglioids; conditions: MEA
[2] = system: stage 2 enteric ganglioid; conditions: flow cytometry, stage 2 enteric ganglioids
mouse colon = experiment: Ex vivo colonic motility assay (organ bath, GIMM); conditions: for CMMC intervals relative to the untreated condition: first experiment, five consecutive 10-min acquisitions, interval at 75th percentile
Description: Preparation of solutions: Krebs buffer [NaCl (117 mM), KCl (4.7 mM), NaH2PO4 (1.2 mM), MgCl2 (1.5 mM), CaCl2·2H2O (2.5 mM), NaHCO3 (25 mM), Glucose (11 mM), pH 7.4] was placed in a 37° C. water bath and aerated with 95% 02 and 5% CO2 (carbogen) gas mixture for at least 30 minutes prior to experiment onset. “Drug” treatment solutions were freshly prepared by adding the drug compound into Krebs buffer before starting data acquisition. The solution with NOS1 inhibitor was prepared by adding N omega-nitro-L-arginine methyl ester hydrochloride (L-NAME) to the drug solutions making “Drug+L-NAME”.
Tissue dissection: For each experimental replicate, a pair of 8-week-old wild type C57BL6 mice (male) were placed in a sealed chamber and euthanized using CO2 asphyxiation followed by cervical dislocation. The lower GI tract (cecum and colon) was removed and immediately transferred to 37° C. carbogenated Krebs buffer, with the fecal matter still inside. Adipose tissue and mesentery were removed before placing the colons in the organ bath reservoir of gastrointestinal motility monitor (GIMM) apparatus.
Experimental set-up and procedure: GIMM was designed based on a previously reported model (Swaminathan et al., 2016). The organ reservoir of GIMM has two-chambers for recording two specimens simultaneously. It is connected to working solutions kept at 37° C. via a 4-channel peristaltic pump (WPI, PERIPRO-4LS). Lower GI tract was harvested and transferred to the organ bath with the Krebs buffer was flowing through. The cecum was pinned down at the proximal tip and the distal end of the colon was pinned through the serosa/mesentery. Five 10-min (for the first experiments) or sequential 6-min (for the sequential drug treatment in the presence and absence of L-NAME) videos were recorded using the IC capture software (Imaging Source) with a high resolution monochromatic firewire industrial camera (Imaging Source®, DMK41AF02) connected to a ⅔″ 16 mm f/1.4 C-Mount Fixed Focal Lens (Fujinon HF16SA1). While tissue in the control chamber was only exposed to Krebs solution, the order of solutions in the experimental chamber was: Krebs, drug compound, Krebs (6 min each), L-NAME (2 min), L-NAME in the presence of a drug compound (6 min) and Krebs (6 min). The chambers were cleaned after each acquisition.
Data and statistical analysis: VolumetryG9a was used to generate the spatiotemporal map (STM) of each acquisition (Spear et al., 2018). Slow waves (SW) and colonic migrating motor complexes (CMMC) data were generated from STMs. Statistical analyses were performed using PRISM.
For selected compounds, a more comprehensive and integrated target analysis was performed by combining reported experimental data (Binding DB) and computational methods (SEA, Carlsbad, Dinies, Swisstarget, Superdrug, Pubchem Bioassays, FIG. 2G). The effects of these compounds was tested on colonic motility in organ bath assays (FIG. 2H). In these assays, resected segments of mouse colon were maintained in a physiologic buffer to study motility patterns using video recording. In the first experiment the effect of all selected drug candidates was tested on mouse colonic motility, ex vivo (FIG. 2I). In each experiment, an untreated control and a drug-treated colon sample were tested side by side during five consecutive 10-min acquisitions. For each acquisition, instead of analyzing fecal outputs, which are generally variable, more sophisticated contraction analysis was performed by generating spatiotemporal maps from video data based on the changes in the colonic diameter over time, and used to calculate the rate of colonic migrating motor complexes (CMMC) and slow waves (SW).

VEGFRs = conditions: cited from earlier work
[3] = system: hESC-derived 2D ENS cultures (NOS1+ cells); experiment: High-throughput screening to identify compounds that enrich NO neurons; format: cell-based, human; design: dose or concentration left out as unconfirmed; conditions: 1694 inhibitors, treated D15-D20, read at day 40
Description: Day 15 H9 hESC-derived enteric crestospheres were dissociated into single cells (accutase, Stemcell Technologies, 07920, 30 min, 37° C.), resuspended in ENC medium and were transferred into 384-well plates. Plates were incubated for 2 hours for cells to attach. Using a pin tool, drugs from a library of 1694 inhibitors (SelleckChem, USA) were added to wells at the final concentration of […] and plates were incubated with drugs until D20, when media were changed to ENC with no drugs. At day 40, cells were fixed, stained for NOS1 and imaged using InCellAnalyzer 2000 (GE Healthcare, USA). Hits were selected based on the fold increase of the percentage of NOS1^+ cells relative to the wells treated with vehicle (DMSO).
(§1) To identify compounds that induce NO neuron differentiation, enteric crestospheres were treated with 1694 compounds in the Selleck inhibitor Library™ and 12 hit compounds that increased the proportion of NOS1^+ neurons by at least eight folds were identified (FIG. 7A and FIG. 8A-B). […] After clustering the predicted protein targets, common patterns emerged for a subset of compounds.

[4] = system: stage 1 enteric ganglioids; experiment: snRNA-seq comparison of PP121 treated vs control enteric ganglioids; format: cell-based, human; conditions: snRNA-seq sub-clustering
Description: All tubes and pipet tips used for cell harvesting were pre-treated with 1% BSA in 1×PBS. Cells were dissociated in Accutase (Stem Cell) at 37° C., in 10 min increments, with end-to-end rotation, until single cell suspension was obtained. The cells were washed in Cell Staining Buffer (Biolegend) and stained with TotalSeq HTO antibodies for 30 min on ice. The cells were washed twice in Cell Staining Buffer and filtered through a 40 μm pipette tip strainer (BelArt). […] The libraries were sequenced on Illumina NovaSeq sequencer in the Center for Advanced Technologies (UCSF). The cell feature matrices were extracted using kallisto/bustools, and demultiplexed using seurat.
To compare the gene expression of control and PP121 treated cell types, neuronal subtypes and NO neuron subtypes, a subset dataset of each cell type and subtype annotation was first created. For each subset, the non-imputed average expression of all genes was then calculated for the control and PP121 treated cells using the “AverageExpression” function and natural log transformed for plotting. R2 values comparing the control and PP121 natural log expression values were calculated from linear modeling using the “y˜x” formula.
To compare PP121 treated and untreated stage 1 enteric ganglioids in single cell resolution, snRNA-seq was performed, and both datasets combined.

PDGFRs = conditions: cited from earlier work
[5] = system: stage 1 NOS1::GFP enteric ganglioids; experiment: NO neuron induction in stage 1 enteric ganglioids (flow cytometry); format: cell-based, human; conditions: for NO neuron induction / NO neuron proportions in response to RTK ligands: stage 1 enteric ganglioids
Description: List of antibodies and working dilutions is not shown.
as §1
To determine the mechanism by which PP121 induced NO neuron enrichment in ganglioids, a combination of pharmacological and genetic approaches was used. […] The crestosphere snRNA-seq analysis confirmed the expression of PDGFRA, PDGFRB, ERBB2, and ERBB3 while the mRNA for VEGFRs were not detectable (FIG. 7L). The induction efficiency of NO neurons was evaluated in response to PDGF (PDGFR agonist), sunitinib (PDGFR and VEGFR antagonist), NRG1 (ERBBs agonist), and sapitinib (ERBBs antagonist) (FIG. 7M). […] To genetically confirm the role of PDGFR signaling in NO neuron induction, CRISPR-Cas9 was used to knock-out PDGFRA and PDGFRB in the enteric crestospheres and the percentage of NO neurons in stage 1 ganglioids was analyzed. NO neurons were […] in both PDGFRA and PDGFRB knock-out cultures further confirming the PP121 mechanism of action (FIG. 7O-P).

EGFRs = conditions: cited from earlier work
[6] = 6-min treatment, all five replicates

Compound: CNC[C@H](O)c1ccc(O)c(O)c1 [Epinephrine, epinephrine]
- electrical firing of ganglioid neurons [1]: increased electrical firing
- neuronal cFOS expression [2]: induced neuronal cFOS expression

Compound: Cc1cccc(C#Cc2ccccc2)n1 [MPEP]
- CMMC intervals relative to the untreated condition (mouse colon): promising effects on lowering CMMC intervals

Compound: Nc1ncnc2c1c(-c1cnc3[nH]ccc3c1)nn2C1CCCC1 [PP121]
- inhibitory activity on VEGFRs (VEGFRs): known inhibitory activity
- fold increase of the percentage of NOS1+ cells relative to vehicle (DMSO) [3]: highest % NOS1^+ fold increase in this subset of compounds
- abundance of neuronal subtypes [4]: enriched cultures for neuronal subtypes EN D and H
- inhibitory activity on PDGFRs (PDGFRs): known inhibitory activity
- NO neuron induction efficiency by treatment window ([5]; 2 μM PP121, five days at various time points, GFP signal): highest induction efficiency for cells treated during day 15-20
- NO neuron induction efficiency, concentration dependence ([5]; different PP121 concentrations at D15-D20, flow cytometry): dose-dependent effect
- inhibitory activity on EGFRs (EGFRs): known inhibitory activity

Compound: O=C1CCc2ccc(OCCCCN3CCN(c4cccc(Cl)c4Cl)CC3)cc2N1 [aripiprazole]
- CMMC intervals relative to the untreated condition (mouse colon): promising effects on lowering CMMC intervals

Compound: Cc1cccc([C@H](C)c2cnc[nH]2)c1C [dexmedetomidine]
- average duration of LCEs (mouse colon; [6]): increasing trend
- total number of longitudinal contractile events (LCEs) (mouse colon; [6]): decrease
- effects on LCEs after the drug removal (mouse colon; Krebs washout): reversed
- effects on LCEs with L-NAME co-treatment (mouse colon; L-NAME co-treatment): blocked
- effect on CMMC intervals with L-NAME (mouse colon; dexmedetomidine+L-NAME simultaneously): absent
- CMMC intervals relative to the untreated condition (mouse colon): promising effects on lowering CMMC intervals
- CMMC intervals (mouse colon; sequential 6-min treatments, five sample pairs, 1 μM, drug alone): decreased CMMC intervals in four out of five colon samples

Compound: O=C1CCC[C@@H]2[C@H]3CCCN4CCC[C@@H](CN12)[C@@H]34 [matrine]
- CMMC intervals relative to the untreated condition (mouse colon): promising effects on lowering CMMC intervals

Compound: CNC(=O)CN1CCC(Oc2cc3c(Nc4cccc(Cl)c4F)ncnc3cc2OC)CC1 [sapitinib]
- NO neuron induction / NO neuron proportions in response to RTK ligands [5]: no significant effect

Compound: PDGF
- NO neuron induction / NO neuron proportions in response to RTK ligands [5]: lower
